Assay results: US10308629B2, “1H-pyrrol-3-amines” (BAYER PHARMA AKTIENGESELLSCHAFT, priority 2015, dated 2019)

Target: (recombinant) catalytic domain of human Bub1 (amino acids 704-1085) (Homo sapiens (Human), UniProt O43683)
Assay: Bub1 kinase assay (TR-FRET)
Type: biochemical
Conditions: ATP 10 μM, peptide substrate 1 μM, 60 min at 22° C., read-out: Inhibition of Bub1 kinase IC50
From the text: Bub1-inhibitory activities of compounds described in the present invention were quantified using a time-resolved fluorescence energy transfer (TR-FRET) kinase assay which measures phosphorylation of the synthetic peptide Biotin-Ahx-VLLPKKSFAEPG (SEQ ID No. 1) (C-terminus in amide form), purchased from e.g. Biosyntan (Berlin, Germany) by the (recombinant) catalytic domain of human Bub1 (amino acids 704-1085), expressed in Hi5 insect cells with an N-terminal His6-tag and purified by affinity-(Ni-NTA) and size exclusion chromatography.
In a typical assay 11 different concentrations of each compound (0.1 nM, 0.33 nM, 1.1 nM, 3.8 nM, 13 nM, 44 nM, 0.15 μM, 0.51 μM, 1.7 μM, 5.9 μM and 20 μM) were tested in duplicate within the same microtiter plate. To this end, 100-fold concentrated compound solutions (in DMSO) were previously prepared by serial dilution (1:3.4) of 2 mM stocks in a clear low volume 384-well source microtiter plate (Greiner Bio-One, Frickenhausen, Germany), from which 50 nl of compounds were transferred into a black low volume test microtiter plate from the same supplier. Subsequently, 2 μL of Bub1 (the final concentration of Bub1 was adjusted depending on the activity of the enzyme lot in order to be within the linear dynamic range of the assay: typically ˜200 ng/mL were used) in aqueous assay buffer [50 mM Tris/HCl pH 7.5, 10 mM magnesium chloride (MgCl2), 200 mM potassium chloride (KCl), 1.0 mM dithiothreitol (DTT), 0.1 mM sodium ortho-vanadate, 1% (v/v) glycerol, 0.01% (w/v) bovine serum albumine (BSA), 0.005% (v/v) Trition X-100 (Sigma), 1× Complete EDTA-free protease inhibitor mixture (Roche)] were added to the compounds in the test plate and the mixture was incubated for 15 min at 22° C. to allow pre-equilibration of the putative enzyme-inhibitor complexes before the start of the kinase reaction, which was initiated by the addition of 3 μL 1.67-fold concentrated solution (in assay buffer) of adenosine-tri-phosphate (ATP, 10 μM final concentration) and peptide substrate (1 μM final concentration). The resulting mixture (5 μL final volume) was incubated at 22° C. during 60 min. and the reaction w as stopped by the addition of 5 μL of an aqueous EDTA-solution (50 mM EDTA, in 100 mM HEPES pH 7.5 and 0.2% (w/v) bovine serum albumin) which also contained the TR-FRET detection reagents (0.2 μM streptavidin-XL665 [Cisbio Bioassays, Codolet, France] and 1 nM anti-phosho-Serine antibody [Merck Millipore, cat. #35-002] and 0.4 nM LANCE EU-W1024 labeled anti-mouse IgG antibody [Perkin-Elmer, product no. AD0077, alternatively a Terbium-cryptate-labeled anti-mouse IgG antibody from Cisbio Bioassays can be used]). The stopped reaction mixture was further incubated 1 h at 22° C. in order to allow the formation of complexes between peptides and detection reagents. Subsequently, the amount of product was evaluated by measurement of the resonance energy transfer from the Eu-chelate-antibody complex recognizing the Phosphoserine residue to the streptavidin-XL665 bound to the biotin moiety of the peptide. To this end, the fluorescence emissions at 620 nm and 665 nm after excitation at 330-350 nm were measured in a TR-FRET plate reader, e.g. a Rubystar or Pherastar (both from BMG Labtechnologies, Offenburg, Germany) or a Viewlux (Perkin-Elmer) and the ratio of the emissions (665 nm/622 nm) was taken as indicator for the amount of phosphorylated substrate. The data were normalised using two sets of control wells for high−(=enzyme reaction without inhibitor=0%=Minimum inhibition) and low−(=all assay components without enzyme=100%=Maximum inhibition) Bub1 activity. IC50 values were calculated by fitting the normalized inhibition data to a 4-parameter logistic equation (Minimum, Maximum, IC50, Hill; Y=Max+(Min−Max)/(1+(X/IC50)Hill)).

Sequence of (recombinant) catalytic domain of human Bub1 (amino acids 704-1085) (O43683 704-1085): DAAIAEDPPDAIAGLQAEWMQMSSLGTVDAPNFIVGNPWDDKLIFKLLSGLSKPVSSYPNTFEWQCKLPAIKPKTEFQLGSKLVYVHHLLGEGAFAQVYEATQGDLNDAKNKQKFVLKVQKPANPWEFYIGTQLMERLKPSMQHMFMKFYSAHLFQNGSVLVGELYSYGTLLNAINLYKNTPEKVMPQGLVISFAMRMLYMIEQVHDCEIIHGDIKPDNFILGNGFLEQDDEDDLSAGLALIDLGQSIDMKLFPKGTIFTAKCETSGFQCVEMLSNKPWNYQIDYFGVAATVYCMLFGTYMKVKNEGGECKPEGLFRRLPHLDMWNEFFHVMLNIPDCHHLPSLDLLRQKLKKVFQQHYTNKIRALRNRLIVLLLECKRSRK

Row | Molecule | IC50
1 | 2-Fluoro-2-methyl-N-4-[[(4aS,5aS) or (4aR,5aR)]-5a-methyl-4-oxo-3-(phenylamino)-1,4,4a,5,5a,6-hexahydrocyclopropa[f]indol-2-yl]pyridin-2-ylpropanamide [Example 40] | 22 nM
2 | CC1(C)[C@@H]2C[C@H]1C(=O)c1c2[nH]c(-c2ccncc2)c1Nc1ccccc1 (relative stereo) [Example 1, rel-(5R,7S)-6,6-Dimethyl-3-(phenylamino)-2-(pyridin-4-yl)-1,5,6,7-tetrahydro-4H-5,7-methanoindol-4-one] | 146 nM
3 | CC1(C)[C@@H]2C[C@H]1C(=O)c1c2[nH]c(-c2ccnc(N)c2)c1Nc1ccccc1 (relative stereo) [Example 2, rel-(5R,7S)-2-(2-Aminopyridin-4-yl)-6,6-dimethyl-3-(phenylamino)-1,5,6,7-tetrahydro-4H-5,7-methanoindol-4-one] | 1160 nM
4 | CC(=O)Nc1cc(-c2[nH]c3c(c2Nc2ccccc2)C(=O)[C@@H]2C[C@H]3C2(C)C)ccn1 (relative stereo) [Example 5, N-4-[rel-(5R,7S)-6,6-Dimethyl-4-oxo-3-(phenylamino)-4,5,6,7-tetrahydro-1H-5,7-methanoindol-2-yl]pyridin-2-ylacetamide] | 115 nM
5 | CC1(C)[C@@H]2C[C@H]1C(=O)c1c2[nH]c(-c2ccnc(NC(=O)C3CC3)c2)c1Nc1ccccc1 (relative stereo) [Example 6, N-4-[rel-(5R,7S)-6,6-Dimethyl-4-oxo-3-(phenylamino)-4,5,6,7-tetrahydro-1H-5,7-methanoindol-2-yl]pyridin-2-ylcyclopropanecarboxamide] | 63 nM
6 | COC(=O)Nc1cc(-c2[nH]c3c(c2Nc2ccccc2)C(=O)[C@@H]2C[C@H]3C2(C)C)ccn1 (relative stereo) [Example 7, methyl 4-[rel-(5R,7S)-6,6-Dimethyl-4-oxo-3-(phenylamino)-4,5,6,7-tetrahydro-1H-5,7-methanoindol-2-yl]pyridin-2-ylcarbamate] | 68 nM
7 | CCNC(=O)Nc1cc(-c2[nH]c3c(c2Nc2ccccc2)C(=O)[C@@H]2C[C@H]3C2(C)C)ccn1 (relative stereo) [Example 8, 1-4-[rel-(5R,7S)-6,6-Dimethyl-4-oxo-3-(phenylamino)-4,5,6,7-tetrahydro-1H-5,7-methanoindol-2-yl]pyridin-2-yl-3-ethylurea] | 375 nM
8 | CC1(C)[C@@H]2C[C@H]1C(=O)c1c2[nH]c(-c2ccnc(NC(=O)NC3CC3)c2)c1Nc1ccccc1 (relative stereo) [Example 9, 1-cyclopropyl-3-4-[rel-(5R,7S)-6,6-Dimethyl-4-oxo-3-(phenylamino)-4,5,6,7-tetrahydro-1H-5,7-methanoindol-2-yl]pyridin-2-ylurea] | 240 nM
9 | CC1(C)[C@@H]2C[C@H]1C(=O)c1c2[nH]c(-c2ccncc2F)c1Nc1ccccc1 (relative stereo) [Example 10, rel-(5R,7S)-2-(3-Fluoropyridin-4-yl)-6,6-dimethyl-3-(phenylamino)-1,5,6,7-tetrahydro-4H-5,7-methanoindol-4-one] | 35 nM
10 | CN1C[C@H]2C(=O)c3c([nH]c(-c4ccncc4)c3Nc3ccccc3)C[C@H]2C1=O (relative stereo) [Example 11, rel-(4aR,7aS)-6-Methyl-3-(phenylamino)-2-(pyridin-4-yl)-1,4a,5,6,7a,8-hexahydropyrrolo[3,4-f]indole-4,7-dione] | 19 nM
11 | O=C1c2c([nH]c(-c3ccncc3)c2Nc2ccccc2)C[C@H]2C[C@@H]12 (relative stereo) [Example 12, rel-(4aR,5aR)-3-(Phenylamino)-2-(pyridin-4-yl)-4a,5,5a,6-tetrahydrocyclopropa[f]indol-4(1H)-one] | 7 nM
12 | CC(=O)Nc1cc(-c2[nH]c3c(c2Nc2ccccc2)C(=O)[C@@H]2C[C@@H]2C3)ccn1 (relative stereo) [Example 15, rel-(4aR,5aR)-N-4-[4-oxo-3-(Phenylamino)-1,4,4a,5,5a,6-hexahydrocyclopropa[f]indol-2-yl]pyridin-2-ylacetamide] | 6 nM
13 | C[C@@]12Cc3[nH]c(-c4ccncc4)c(Nc4ccccc4)c3C(=O)[C@@H]1C2 (relative stereo) [Example 16, rel-(4aR,5aR)-5a-Methyl-3-(phenylamino)-2-(pyridin-4-yl)-4a,5,5a,6-tetrahydrocyclopropa[f]indol-4(1H)-one] | 6 nM

More lines, now with the values ahead:

Row | IC50 | Molecule
14 | 52 nM | 1-Fluoro-N-4-[[(4aR,5aR) or (4aS,5aS)]-5a-methyl-4-oxo-3-(phenylamino)-1,4,4a,5,5a,6-hexahydrocyclopropa[f]indol-2-yl]pyridin-2-ylcyclopropanecarboxamide [Example 31]
15 | 17 nM | 1-Fluoro-N-4-[[(4aS,5aS) or (4aR,5aR)]-5a-methyl-4-oxo-3-(phenylamino)-1,4,4a,5,5a,6-hexahydrocyclopropa[f]indol-2-yl]pyridin-2-ylcyclopropanecarboxamide [Example 30]
16 | 22 nM | 1-Methyl-N-4-[[(4aR,5aR) or (4aS,5aS)]-5a-methyl-4-oxo-3-(phenylamino)-1,4,4a,5,5a,6-hexahydrocyclopropa[f]indol-2-yl]pyridin-2-yl-1H-pyrazole-5-carboxamide [Example 43]
17 | 11 nM | 1-Methyl-N-4-[[(4aS,5aS) or (4aR,5aR)]-5a-methyl-4-oxo-3-(phenylamino)-1,4,4a,5,5a,6-hexahydrocyclopropa[f]indol-2-yl]pyridin-2-yl-1H-pyrazole-5-carboxamide [Example 42]
18 | 53 nM | 2-Fluoro-2-methyl-N-4-[[(4aR,5aR) or (4aS,5aS)]-5a-methyl-4-oxo-3-(phenylamino)-1,4,4a,5,5a,6-hexahydrocyclopropa[f]indol-2-yl]pyridin-2-ylpropanamide [Example 41]
19 | 25 nM | CC1CCC(=O)c2c([nH]c(-c3ccnc(N)c3)c2Nc2ccccc2)C1 (racemic) [Example 24, (7RS)-2-(2-Aminopyridin-4-yl)-7-methyl-3-(phenylamino)-5,6,7,8-tetrahydrocyclohepta[b]pyrrol-4(1H)-one]
20 | 7 nM | CC(=O)Nc1cc(-c2[nH]c3c(c2Nc2ccccc2)C(=O)CCC(C)C3)ccn1 (racemic) [Example 25, N-{4-[(7RS)-3-Anilino-7-methyl-4-oxo-1,4,5,6,7,8-hexahydrocyclohepta[b]pyrrol-2-yl]pyridin-2-yl}acetamide]
21 | 630 nM | C[C@@]12Cc3[nH]c(-c4ccnc(NS(C)(=O)=O)c4)c(Nc4ccccc4)c3C(=O)[C@@H]1C2 (relative stereo) [Example 27, N-{4-[rel-(4aR,5aR)-3-Anilino-5a-methyl-4-oxo-1,4,4a,5,5a,6-hexahydrocyclopropa[f]indol-2-yl]pyridin-2-yl}methanesulfonamide]
22 | 133 nM | C[C@@]12C[C@@H]1C(=O)c1c([nH]c(-c3ccnc(NC(=O)C4(F)CC4)c3)c1Nc1ccccc1)C2=O (relative stereo) [Example 29, 1-Fluoro-N-4-[rel-(4aS,5aR)-5a-methyl-4,6-dioxo-3-(phenylamino)-1,4,4a,5,5a,6-hexahydrocyclopropa[f]indol-2-yl]pyridin-2-ylcyclopropanecarboxamide]
23 | 30 nM | C[C@@]12C[C@@H]1C(=O)c1c([nH]c(-c3ccnc(NC(=O)C4CC4)c3)c1Nc1ccccc1)C2=O (relative stereo) [Example 32, N-4-[rel-(4aS,5aR)-5a-Methyl-4,6-dioxo-3-(phenylamino)-1,4,4a,5,5a,6-hexahydrocyclopropa[f]indol-2-yl]pyridin-2-ylcyclopropanecarboxamide]
